Molecules are shown by their SMILES.

T1 sequence (Q15761 whole entry): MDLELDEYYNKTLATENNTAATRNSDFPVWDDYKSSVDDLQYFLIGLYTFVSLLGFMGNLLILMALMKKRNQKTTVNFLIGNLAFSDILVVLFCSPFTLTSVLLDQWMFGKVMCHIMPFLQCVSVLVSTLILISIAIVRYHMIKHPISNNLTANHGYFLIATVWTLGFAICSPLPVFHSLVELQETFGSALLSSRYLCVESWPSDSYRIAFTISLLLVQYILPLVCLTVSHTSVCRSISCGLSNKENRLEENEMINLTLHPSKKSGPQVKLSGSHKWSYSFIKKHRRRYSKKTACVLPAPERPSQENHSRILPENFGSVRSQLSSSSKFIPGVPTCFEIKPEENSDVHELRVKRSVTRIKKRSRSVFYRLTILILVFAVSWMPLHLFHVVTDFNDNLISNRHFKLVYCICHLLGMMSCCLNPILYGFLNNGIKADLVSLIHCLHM
mouse NPY Y5 receptor, sequence (O70342 whole entry): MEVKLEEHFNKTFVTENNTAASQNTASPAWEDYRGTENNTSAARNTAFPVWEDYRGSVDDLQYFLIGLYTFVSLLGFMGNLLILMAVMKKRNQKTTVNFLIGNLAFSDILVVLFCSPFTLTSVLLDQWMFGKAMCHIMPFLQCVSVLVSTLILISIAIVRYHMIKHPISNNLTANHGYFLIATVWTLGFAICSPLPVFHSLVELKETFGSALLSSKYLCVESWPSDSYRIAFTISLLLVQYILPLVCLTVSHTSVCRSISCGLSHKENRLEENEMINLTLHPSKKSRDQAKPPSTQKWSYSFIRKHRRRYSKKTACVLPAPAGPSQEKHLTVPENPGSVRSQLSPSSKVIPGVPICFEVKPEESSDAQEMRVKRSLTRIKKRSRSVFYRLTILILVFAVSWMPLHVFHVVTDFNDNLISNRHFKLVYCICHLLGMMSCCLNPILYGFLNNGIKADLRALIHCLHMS

The first assay addresses T1, human NPY Y5 receptor (Homo sapiens (Human), UniProt Q15761). The assay is described as follows: Affinity for human NPY Y5 receptor ([125I] peptide YY binding, CHO cell membranes). Particulars: membranes from CHO cells expressing human NPY Y5 receptor, [125I] peptide YY 60 pM, 25° C., 2 hours; read-out: 50% inhibitory concentration against the specific peptide YY binding (IC50 value). An excerpt:
cDNA sequence encoding a human NPY Y5 receptor (WO96/16542) was cloned in a vector (pME18S, Takebe et al. Mol. Cell. Biol. 8, 466-472). The obtained expression vector was transfected into CHO cells as a host by using Lipofect AMINE reagent (Trademark, Inbitrogen) according to the instruction manual. The cells that stably express human NPY Y5 receptor were obtained.
(§1) The membranes prepared from the CHO cells expressing human NPY Y5 receptor, the compound of this invention and 30,000 cpm [^1251] peptide YY (60 pM of final concentration: Healthcare) were incubated in the assay buffer (20 mM HEPES-Hanks buffer containing 0.1% bovine serum albumin, pH 7.4) at 25° C. for 2 hours, and then the membrane was filtered from the mixture through a glassfilter (GF/C) presoaked with 1% polyethyleneimine. After washing with 50 mM Tris-HCl buffer (pH 7.4), radioactivity retained on the filters was quantified with a gamma counter. Nonspecific binding was defined as the amount of radioactivity bound to the membranes after incubation in the presence of 200 nM of peptide YY. The 50% inhibitory concentration of the test compound against the specific peptide YY binding (IC50 value) was calculated (Inui, A. et al. Endocrinology 131, 2090-2096 (1992)).
For `CCS(=O)(=O)NC[C@H]1CC[C@H](Nc2nc(-c3ccc(F)c(F)c3)no2)CC1` [Compound I-029], the IC50 turned out to be 0.86 nM.

Turning to `CCS(=O)(=O)NC[C@H]1CC[C@H](Nc2nc(-c3cccc(F)c3)no2)CC1` [Compound I-017], the IC50 came out at 0.81 nM.

Another assay addresses mouse NPY Y5 receptor (Mus musculus (Mouse), UniProt O70342). Briefly: Affinity for mouse NPY Y5 receptor ([125I] peptide YY binding, CHO cell membranes). To be noted: membranes from CHO cells expressing mouse NPY Y5 receptor, [125I] peptide YY 60 pM, 25° C., 2 hours; read-out: 50% inhibitory concentration against the specific peptide YY binding (IC50 value).
Description: cDNA sequence encoding a mouse NPY Y5 receptor (Biochim. Biophys. Acta 1328:83-89, 1997) was cloned in a vector (pME18S, Takebe et al. Mol. Cell. Biol. 8, 8957). The obtained expression vector was transfected into CHO cells as a host by using Lipofect AMINE reagent (Trademark, Gico BRL Co., Ltd.) according to the instruction manual. The cells that stably express NPY Y5 receptor were obtained.
as §1, with “expressing” for “expressing human”, “[^125I]” for “[^1251]”, “glass filter” for “glassfilter”
Take `CCS(=O)(=O)NC[C@H]1CC[C@H](Nc2nc(-c3ccc(F)cc3F)no2)CC1` [Compound I-034]: the IC50 worked out at 0.18 nM.

`CC(C)(C)S(=O)(=O)NC[C@H]1CC[C@H](Nc2nc(C(F)(F)F)no2)CC1` [Compound I-136]: the IC50 worked out at 1.5 nM.

As for `CS(=O)(=O)NC[C@H]1CC[C@H](Nc2nc(-c3ccc(F)cc3)no2)CC1` [Compound I-023], the IC50 amounted to 1.4 nM.

Regarding `CCS(=O)(=O)NC[C@H]1CC[C@H](Nc2nc(C(F)(F)C(F)(F)F)no2)CC1` [Compound I-153], the IC50 amounted to 1.67 nM.

For `CC(C)(C)S(=O)(=O)NC[C@H]1CC[C@H](Nc2nc(-c3ccc(F)cn3)no2)CC1` [Compound I-100], the IC50 came out at 0.9 nM.

Take `CC(C)(c1ccccc1)c1noc(N[C@H]2CC[C@H](CNS(=O)(=O)C(C)(C)C)CC2)n1` [Compound I-130]: the IC50 amounted to 0.7 nM.

Consider `CC(C)S(=O)(=O)NC[C@H]1CC[C@H](Nc2nc(-c3ccccc3)no2)CC1` [Compound I-024], for which the IC50 amounted to 0.13 nM.

Turning to `CS(=O)(=O)NC[C@H]1CC[C@H](Nc2nc(-c3cccc(Cl)c3)no2)CC1` [Compound I-081], the IC50 came to 0.9 nM.

Take `CCS(=O)(=O)NC[C@H]1CC[C@H](Nc2nc(C3(F)CCCC3)no2)CC1` [Compound I-138]: the IC50 was determined as 0.5 nM.

As for `CC(C)S(=O)(=O)NC[C@H]1CC[C@H](Nc2nc(C(F)(F)C(F)(F)F)no2)CC1` [Compound I-152], the IC50 amounted to 0.65 nM.

`CC1(c2noc(N[C@H]3CC[C@H](CNS(=O)(=O)C(C)(C)C)CC3)n2)CC(F)(F)C1` [Compound I-143]: the IC50 was found to be 0.8 nM.

For `CCS(=O)(=O)NC[C@H]1CC[C@H](Nc2nc(-c3ccccc3)no2)CC1` [Compound I-011], the IC50 came out at 0.34 nM.

Turning to `CCS(=O)(=O)NC[C@H]1CC[C@H](Nc2nc(-c3ccc(F)cc3)no2)CC1` [Compound I-006], the IC50 is 0.32 nM.

Turning to `CC(C)S(=O)(=O)NC[C@H]1CC[C@H](Nc2nc(-c3cccc(F)c3)no2)CC1` [Compound I-018], the IC50 is 0.2 nM.

As for `CC(C)S(=O)(=O)NC[C@H]1CC[C@H](Nc2nc(-c3ccc(F)cn3)no2)CC1` [Compound I-099], the IC50 came to 0.8 nM.

On to `CC(C)S(=O)(=O)NC[C@H]1CC[C@H](Nc2nc(C(F)(F)F)co2)CC1` [Compound I-150], for which the IC50 worked out at 3.6 nM.

Regarding `CCS(=O)(=O)NC[C@H]1CC[C@H](Nc2nc(-c3cc(F)cc(F)c3)no2)CC1` [Compound I-053], the IC50 was 0.23 nM.

Turning to `CCS(=O)(=O)NC[C@H]1CC[C@H](Nc2nc(-c3ccc(F)c(F)c3)no2)CC1` [Compound I-029], the IC50 is 0.22 nM.

Consider `CC(C)(C)S(=O)(=O)NC[C@H]1CC[C@H](Nc2nc(C(F)(F)C(F)(F)F)no2)CC1` [Compound I-149], for which the IC50 came to 1.04 nM.

For `CC(C)S(=O)(=O)NC[C@H]1CC[C@H](Nc2nc(C3(C)CC(F)(F)C3)no2)CC1` [Compound I-147], the IC50 amounted to 0.61 nM.

With `CS(=O)(=O)NC[C@H]1CC[C@H](Nc2nc(-c3cccc(F)c3)no2)CC1` [Compound I-027], the IC50 is 0.86 nM.

In the case of `CC(C)S(=O)(=O)NC[C@H]1CC[C@H](Nc2nc(C(F)(F)F)no2)CC1` [Compound I-145], the IC50 worked out at 3.1 nM.

On to `CC(C)(C)S(=O)(=O)NC[C@H]1CC[C@H](Nc2nc(C3(F)CC(F)(F)C3)no2)CC1` [Compound I-161], for which the IC50 was determined as 1.9 nM.

For `CC(C)(C)S(=O)(=O)NC[C@H]1CC[C@H](Nc2nc(C(F)(F)F)co2)CC1` [Compound I-146], the IC50 was found to be 4.21 nM.

On to `CCS(=O)(=O)NC[C@H]1CC[C@H](Nc2nc(-c3cccc(F)c3)no2)CC1` [Compound I-017], for which the IC50 came to 0.22 nM.

The target in a further assay is T1, human NPY Y5 receptor. Briefly: Inhibitory effect on cAMP production in CHO cells. The format is cell-based. To be noted: CHO cells expressing human NPY Y5 receptor, 50 nM NPY, 10 μM forskolin; read-out: 50% inhibitory concentration (IC50 value) against the NPY activity on forskolin stimulated cAMP production. Here is the method: CHO cells expressing human NPY Y5 receptor were incubated in the presence of 2.5 mM isobutylmethylxanthine (SIGMA) at 37° C. for 20 min. After the incubation the compound of the present invention was added, and then the mixture was incubated for 5 min. Next, 50 nM NPY and 10 μM forskolin (SIGMA) were added, and the mixture was incubated for 30 min. After termination of the reaction by adding 1N HCl, the amount of cAMP in the supernatant was determined with an EIA kit (Amersham LIFE SCIENCE). The inhibitory activity of NPY against forskolin stimulated cAMP production was expressed as 100% and the 50% inhibitory concentration (IC50 value) of the compound of the present invention against the NPY activity was calculated.
Consider `CC(C)S(=O)(=O)NC[C@H]1CC[C@H](Nc2nc(-c3cccc(F)c3)no2)CC1` [Compound I-018], for which the IC50 was 2.1 nM.

As for `CCS(=O)(=O)NC[C@H]1CC[C@H](Nc2nc(-c3ccc(F)c(F)c3)no2)CC1` [Compound I-029], the IC50 turned out to be 1.3 nM.

In the case of `CCS(=O)(=O)NC[C@H]1CC[C@H](Nc2nc(-c3cccc(F)c3)no2)CC1` [Compound I-017], the IC50 came to 3.3 nM.

Values taken from patent US8916594B2, “5-membered ring heteroaromatic derivatives having NPY Y5 receptor antagonistic activity” (Shionogi & Co., Ltd., priority 2011, dated 2014).
